Measured values: ChEMBL document CHEMBL1158270, “Triangulynes A-H and trangulynic acid, new cytotxic polyacetylenes from the marine sponge Pellina triangulata” (1996)
Calls of active or inactive are those of the source.

Key:
Assay type in all cases: functional
HL-60 = assay: Cytotoxicity against human HL60 cells
Malme-3M = assay: Cytotoxicity against human MALME-3M cells
HCC 2998 = assay: Cytotoxicity against human HCC2998 cells
CCRF-CEM = assay: Cytotoxicity against human CCRF-CEM cells
HCT-116 = assay: Cytotoxicity against human HCT116 cells
K562 = assay: Cytotoxicity against human K562 cells
MOLT-4 = assay: Cytotoxicity against human MOLT4 cells
M14 = assay: Cytotoxicity against human M14 cells
LOX IMVI = assay: Cytotoxicity against human LOXIMVI cells
HCT-15 = assay: Cytotoxicity against human HCT15 cells
SR = assay: Cytotoxicity against human SR cells
RPMI-8226 = assay: Cytotoxicity against human RPMI8226 cells
SW-620 = assay: Cytotoxicity against human SW620 cells
KM12 = assay: Cytotoxicity against human KM12 cells
COLO 205 = assay: Cytotoxicity against human COLO205 cells
HT-29 = assay: Cytotoxicity against human HT29 cells

Measured: Activity

C#C/C=C\[C@H](O)CCCCCCCCCCC/C=C\CCCCCCCCCCC[C@H](O)C#CC#CC#CCO
active: all assays above

C#CC(O)/C=C/CCCCCCCCC/C=C\C#CCCCCCCCCCC#CC#CC#CCO (configuration not stated)
active: all assays above

C#C[C@H](O)/C=C/CCCCCCCC/C=C\CCCCCCCC[C@H](O)C#CC#CC#CCO
active: all assays above

C#C[C@H](O)/C=C/CCCCCCCCC/C=C\C#CCCCCCCCC[C@H](O)C#CC#CC#CCO
active: all assays above

C#C[C@H](O)/C=C/CCCCCCCCC/C=C\C#CCCCCCC[C@H](O)C#CC#CC#CCO
active: all assays above

C#C[C@H](O)/C=C/CCCCCCCCCC/C=C\CCCCCCCC[C@H](O)C#CC#CC#CCO
active: all assays above

C#C[C@H](O)/C=C/CCCCCCCCCCCC/C=C\CCCCCCCCCCCCCC[C@H](O)C#CC#CC#CCO
active: all assays above
